Reference: PubChem BioAssay (NCI)
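The concentration for 50% growth inhibition is given as GI50. TGI denotes the concentration required for complete inhibition of growth.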

What was measured:
Assay in all cases: NCI-60 cell line screen, 384-well format
[1] = tested on: A549 NSCLC
[2] = tested on: RXF 393 renal
[3] = tested on: PC-3 prostate
[4] = tested on: RPMI-8226 leukemia
[5] = tested on: OVCAR-3 ovarian
[6] = tested on: SK-OV-3 ovarian
[7] = tested on: TK-10 renal
[8] = tested on: SK-MEL-28 melanoma
[9] = tested on: UACC-62 melanoma
[10] = tested on: SR leukemia
[11] = tested on: SNB-19 CNS
[12] = tested on: SF-268 CNS
[13] = tested on: NCI-H460 NSCLC
[14] = tested on: SF-539 CNS
[15] = tested on: MOLT-4 leukemia
[16] = tested on: KM12 colon
[17] = tested on: EKVX NSCLC
[18] = tested on: HOP-92 NSCLC
[19] = tested on: SN12C renal
[20] = tested on: HCC-2998 colon
[21] = tested on: NCI-H23 lung
[22] = tested on: HS 578T breast
[23] = tested on: MDA-MB-435 melanoma
[24] = tested on: BT-549 breast
[25] = tested on: UACC-257 melanoma
[26] = tested on: U251 glioblastoma
[27] = tested on: NCI-H322M lung
[28] = tested on: HL-60(TB) leukemia
[29] = tested on: CCRF-CEM leukemia
[30] = tested on: HOP-62 NSCLC
[31] = tested on: SNB-75 CNS
[32] = tested on: MALME-3M melanoma
[33] = tested on: IGROV1 ovarian
[34] = tested on: HCT-15 colon
[35] = tested on: MDA-MB-231 breast
[36] = tested on: M14 melanoma
[37] = tested on: NCI-H226 lung
[38] = tested on: HT29 colon
[39] = tested on: OVCAR-8 ovarian
[40] = tested on: SK-MEL-5 melanoma
[41] = tested on: DU-145 prostate
[42] = tested on: T-47D breast

## COc1ccc(F)c(F)c1C(=O)c1cnc(NC2CCN(S(C)(=O)=O)CC2)nc1N
[1]
  GI50: 169 nM
  TGI: > 100 µM
[2]
  GI50: 159 nM
  TGI: 345 nM
[3]
  GI50: 284 nM
  TGI: 2130 nM
[4]
  GI50: 20.9 nM
  TGI: 124 nM
[5]
  GI50: 305 nM
  TGI: 1450 nM
[6]
  GI50: 1030 nM
  TGI: > 100 µM
[7]
  GI50: 304 nM
  TGI: > 100 µM
[8]
  GI50: 161 nM
  TGI: 1580 nM
[9]
  GI50: 138 nM
  TGI: 453 nM
[10]
  GI50: 15.7 nM
  TGI: 39 nM
[11]
  GI50: 348 nM
  TGI: > 100 µM
[12]
  GI50: 129 nM
  TGI: 361 nM
[13]
  GI50: 30.2 nM
  TGI: 162 nM
[14]
  GI50: 137 nM
  TGI: 501 nM
[15]
  GI50: 91.2 nM
  TGI: 396 nM
[16]
  GI50: 108 nM
  TGI: 456 nM
[17]
  GI50: 424 nM
  TGI: 3.16 µM
[18]
  GI50: 310 nM
  TGI: > 100 µM
[19]
  GI50: 139 nM
  TGI: 681 nM
[20]
  GI50: 289 nM
  TGI: 1910 nM
[21]
  GI50: 140 nM
  TGI: 774 nM
[22]
  GI50: 206 nM
  TGI: 492 nM
[23]
  GI50: 251 nM
  TGI: 1600 nM
[24]
  GI50: 44.1 nM
  TGI: 434 nM
[25]
  GI50: 1030 nM
  TGI: 2620 nM
[26]
  GI50: 278 nM
  TGI: > 100 µM
[27]
  GI50: 215 nM
  TGI: 602 nM
[28]
  GI50: 15.8 nM
  TGI: 125 nM
[29]
  GI50: 72 nM
  TGI: 234 nM
[30]
  GI50: 135 nM
  TGI: 466 nM
[31]
  GI50: 86.4 nM
  TGI: 1730 nM
[32]
  GI50: 379 nM
  TGI: 2000 nM
[33]
  GI50: 222 nM
  TGI: > 100 µM
[34]
  GI50: 187 nM
  TGI: > 100 µM
[35]
  GI50: 201 nM
  TGI: 3.7 µM
[36]
  GI50: 346 nM
  TGI: 1640 nM
[37]
  GI50: 164 nM
  TGI: 753 nM
[38]
  GI50: 206 nM
  TGI: 2050 nM
[39]
  GI50: 144 nM
  TGI: 917 nM
[40]
  GI50: 82 nM
  TGI: 609 nM
[41]
  GI50: 211 nM
  TGI: 977 nM
[42]
  GI50: 306 nM
  TGI: > 100 µM
